According to patent publication US6506766B1 (Abbott Laboratories, priority 1998, dated 2003):

Columns and labels:
[1] = target: T1, human glucocorticoid receptor-α [GRX] isoform (Homo sapiens, UniProt P04150); experiment: Radioligand binding with human glucocorticoid receptor cytosol ([3H]-dexamethasone competition); details: GRX cytosol expressed in insect SF21 cells, [3H]-Dex ~0.9 nM, 4° C. overnight; Ki by Cheng-Prusoff, KL ~[…]; read-out: Ki (nM) GR
T1 construct: host or cells: insect SF21 cells (baculovirus)
T1 sequence (P04150 1-777): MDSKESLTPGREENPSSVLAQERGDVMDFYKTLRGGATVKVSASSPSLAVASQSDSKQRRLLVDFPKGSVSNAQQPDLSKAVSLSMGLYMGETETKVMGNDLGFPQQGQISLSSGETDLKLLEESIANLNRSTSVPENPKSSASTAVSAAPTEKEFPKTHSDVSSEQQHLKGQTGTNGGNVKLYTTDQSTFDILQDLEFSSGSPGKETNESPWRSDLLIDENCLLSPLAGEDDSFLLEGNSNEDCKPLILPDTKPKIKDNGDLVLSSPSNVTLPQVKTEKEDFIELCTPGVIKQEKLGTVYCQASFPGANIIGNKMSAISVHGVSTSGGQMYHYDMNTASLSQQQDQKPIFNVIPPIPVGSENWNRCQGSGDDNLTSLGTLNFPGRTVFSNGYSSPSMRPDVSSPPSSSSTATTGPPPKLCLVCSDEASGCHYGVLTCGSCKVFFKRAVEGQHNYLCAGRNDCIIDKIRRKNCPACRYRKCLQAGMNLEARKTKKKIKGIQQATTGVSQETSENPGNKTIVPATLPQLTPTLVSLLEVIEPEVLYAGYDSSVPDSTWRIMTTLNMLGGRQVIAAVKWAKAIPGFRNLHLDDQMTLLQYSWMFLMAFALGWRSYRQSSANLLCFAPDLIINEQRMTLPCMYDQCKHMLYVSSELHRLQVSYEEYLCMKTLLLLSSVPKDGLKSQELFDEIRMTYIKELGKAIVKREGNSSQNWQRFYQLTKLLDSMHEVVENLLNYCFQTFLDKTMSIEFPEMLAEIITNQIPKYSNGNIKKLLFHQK

[2] = target: T2, human progesterone receptor-A [PRA] isoform (Homo sapiens, UniProt P06401); experiment: Radioligand binding with human progesterone receptor cytosol ([3H]-progesterone competition); details: PRA cytosol expressed in insect SF21 cells, [3H]Prog ~0.8 nM, 4° C. overnight; Ki by Cheng-Prusoff, KL ~4.5 nM; read-out: Ki (nM) PR
T2 construct: host or cells: insect SF21 cells (baculovirus)
T2 sequence (P06401 1-769 isoform P06401-2): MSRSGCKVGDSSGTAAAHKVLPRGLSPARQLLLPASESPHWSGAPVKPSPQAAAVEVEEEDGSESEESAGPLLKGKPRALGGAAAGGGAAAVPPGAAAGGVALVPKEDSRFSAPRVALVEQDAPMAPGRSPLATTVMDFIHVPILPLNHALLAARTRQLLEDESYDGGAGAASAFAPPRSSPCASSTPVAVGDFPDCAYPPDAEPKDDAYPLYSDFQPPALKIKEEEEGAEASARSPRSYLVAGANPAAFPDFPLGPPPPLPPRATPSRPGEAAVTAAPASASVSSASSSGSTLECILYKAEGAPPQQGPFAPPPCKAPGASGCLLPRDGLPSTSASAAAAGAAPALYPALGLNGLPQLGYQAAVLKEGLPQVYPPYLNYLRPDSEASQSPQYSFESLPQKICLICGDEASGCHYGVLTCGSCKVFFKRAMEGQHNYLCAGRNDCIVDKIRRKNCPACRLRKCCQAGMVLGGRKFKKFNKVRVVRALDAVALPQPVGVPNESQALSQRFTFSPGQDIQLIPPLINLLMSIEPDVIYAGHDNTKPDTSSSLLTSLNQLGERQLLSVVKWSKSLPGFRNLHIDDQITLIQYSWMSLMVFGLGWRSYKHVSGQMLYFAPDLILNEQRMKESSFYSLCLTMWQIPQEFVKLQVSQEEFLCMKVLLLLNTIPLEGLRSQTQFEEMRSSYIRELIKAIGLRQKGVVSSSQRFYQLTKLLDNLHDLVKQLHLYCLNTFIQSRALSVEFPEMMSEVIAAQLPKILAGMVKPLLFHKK

In the case of `COc1cccc2c1-c1ccc3c(c1C(N(C)c1ccccc1)O2)C(C)=CC(C)(C)N3` (stereo not drawn) [Example 35, 2,5-Dihydro-10-methoxy-2,2,4,N-tetramethyl-N-phenyl-1H-[1]benzopyrano[3,4-f]quinolin-5-amine], the Ki [1] is reported as 260 nM and the Ki [2] is reported as ≥ 10000 nM.
With `CC1=CC(C)(C)Nc2ccc3c(c21)C(c1ccc(F)c(F)c1)Oc1ccc(O)c(Cl)c1-3` (stereo not drawn) [Example 226, 10-Chloro-9-hydroxy-5-(3,4-difluorophenyl)-2,2,4-trimethyl-1H-2,5-dihydro-[1]benzopyrano[3,4-f]quinoline] the Ki [1] was 2.6 nM and the Ki [2] was 220 nM.
In the case of `COc1cccc2c1-c1ccc3c(c1C(c1ccc(OCSC)cc1)O2)C(C)=CC(C)(C)N3` (stereo not drawn) [Example 96, 2,5-Dihydro-10-methoxy-2,2,4-trimethyl-5-[[4-(methylthio)methoxy]phenyl]-1H-[1]benzopyrano[3,4-f]quinoline], the Ki [1] is reported as 10 nM and the Ki [2] is reported as 9160 nM.
For `CNC(=O)OCCC1Oc2cccc(OC)c2-c2ccc3c(c21)C(C)=CC(C)(C)N3` (stereo not drawn) [Example 203, 2,5-Dihydro-10-methoxy-5-(2-(N-methyaminocarbonyloxyoxy)ethyl)-2,2,4-trimethyl-1H-[1]benzopyrano[3,4-f]quinoline], the Ki [1] was 85 nM and the Ki [2] was ≥ 10000 nM.
In the case of `COc1cccc2c1-c1ccc3c(c1[C@@H]([C@H]1C=C(CN(C)C)CCC1)O2)C(C)=CC(C)(C)N3` (relative stereo) [Example 165], the Ki [1] is reported as 14 nM and the Ki [2] is reported as ≥ 10000 nM.
With `C=CCC1Oc2ccc(Cl)c(OC(F)F)c2-c2ccc3c(c21)C(C)=CC(C)(C)N3` (stereo not drawn) [Example 230, 5-(3-Propenyl)-9-chloro-10-difluoromethoxy-2,2,4-trimethyl-2,5-dihydro-1H-[1]benzopyrano[3,4-f]quinoline] the Ki [1] was 2.4 nM and the Ki [2] was 50.3 nM.
For `COc1cccc2c1-c1ccc3c(c1C(c1cccc(OCCN4CCCCC4)c1)O2)C(C)=CC(C)(C)N3` (stereo not drawn) [Example 89, 2,5-Dihydro-10-methoxy-2,2,4-trimethyl-5-[3-[2-(1-piperidinyl)ethoxy]pheny]-1H-[1]benzopyrano[3,4-f]quinoline], the Ki [1] was 275 nM and the Ki [2] was ≥ 10000 nM.
Work on `CC/C=C\CC1Oc2ccc(O)c(OC)c2-c2ccc3c(c21)C(C)=CC(C)(C)N3` (stereo not drawn) [Example 394] yielded a Ki [1] of 0.89 nM and a Ki [2] of 109 nM.
Work on `C#Cc1cccc2c1-c1ccc3c(c1C(CC=C)O2)C(C)=CC(C)(C)N3` (stereo not drawn) [Example 6, 10-Ethynyl-2,5-dihydro-2,2,4-trimethyl-5-(2-propenyl)-1H-[1]benzopyrano[3,4-f]quinoline] yielded a Ki [1] of 3.8 nM and a Ki [2] of 321 nM.
Compound `CC1=CC(C)(C)Nc2ccc3c(c21)[C@H]([C@H]1C=CCC1)Oc1ccc(O)c(Cl)c1-3` [Example 222, (−)2,5(S)-Dihydro-9-hydroxy-10-chloro-2,2,4-trimethyl-5-(3R-cyclopentenyl)-1H-[1]benzopyrano[3,4-f]quinoline] has a Ki [1] of 0.47 nM and a Ki [2] of 9.9 nM.
In the case of `COc1cccc2c1-c1ccc3c(c1[C@@H]([C@@H]1C=C(C)CCC1)O2)C(C)=CC(C)(C)N3` [Example 158], the Ki [1] is reported as 48 nM and the Ki [2] is reported as ≥ 10000 nM.
For `COc1cccc2c1-c1ccc3c(c1C(CCCNC(=O)NN)O2)C(C)=CC(C)(C)N3` (stereo not drawn) [Example 178, 2,5-Dihydro-10-methoxy-5-(1-(hydrazinocarbonylamino)-3-propyl)-2,2,4-trimethyl-1H-[1]benzopyrano[3,4-f]quinoline], the Ki [1] was 468 nM and the Ki [2] was ≥ 10000 nM.
`C=C(CCl)CC1Oc2cccc(OC)c2-c2ccc3c(c21)C(C)=CC(C)(C)N3` (stereo not drawn) [Example 48, 5-[2-(Chloromethyl)-2-propenyl]-2,5-dihydro-10-methoxy-2,2,4-trimethyl-1H-[1]benzopyrano[3,4-f]quinoline] showed a Ki [1] of 5.8 nM and a Ki [2] of 2770 nM.
In the case of `C=CCC1Oc2ccc(OC)c(OC)c2-c2ccc3c(c21)C(C)=CC(C)(C)N3` (stereo not drawn) [Example 130, 2,5-Dihydro-9,10-dimethoxy-2,2,4-trimethyl-5-(2-propenyl)-1H-[1]benzopyrano[3,4-f]quinoline], the Ki [1] is reported as 11.9 nM and the Ki [2] is reported as 1050 nM.
`CC1=C[C@H]([C@@H]2Oc3ccc(O)c(Cl)c3-c3ccc4c(c32)C(C)=CC(C)(C)N4)CCC1` [Example 418] gave a Ki [1] of 1.4 nM and a Ki [2] of 2.1 nM.
`COc1c(O)ccc2c1-c1ccc3c(c1[C@H]([C@H]1C=C(CO)CCC1)O2)C(C)=CC(C)(C)N3` (relative stereo) [Example 242] was tested, and the Ki [1] was 0.53 nM and the Ki [2] was 3420 nM.
`COc1c(O)ccc2c1-c1ccc3c(c1[C@H]([C@@H]1C=CCCCC1)O2)C(C)=CC(C)(C)N3` [Example 246, (−)(5S,3′S)2,5-Dihydro-9-hydroxy-10-methoxy-2,2,4-trimethyl-5-(3-cycloheptenyl)-1H-[1]benzopyrano[3,4-f]quinoline] was tested, and the Ki [1] was 0.87 nM and the Ki [2] was 113 nM.
For `COc1cccc2c1-c1ccc3c(c1C(c1cccc(CCSC)c1)O2)C(C)=CC(C)(C)N3` (stereo not drawn) [Example 316, 2,5-Dihydro-10-methoxy-5-(3-(2-methythioethyl)phenyl)-2,2,4-trimethyl-1H-[1]benzopyrano[3,4-f]quinoline], the Ki [1] was 11 nM and the Ki [2] was ≥ 10000 nM.
In the case of `COc1cccc2c1-c1ccc3c(c1C(=Cc1cccc(Cl)n1)O2)C(C)=CC(C)(C)N3` [Example 352], the Ki [1] is reported as 58 nM and the Ki [2] is reported as ≥ 10000 nM.
For `COc1c(O)ccc2c1-c1ccc3c(c1[C@H](C1(C)CC=CCC1)O2)C(C)=CC(C)(C)N3` (single isomer, unassigned; (-)) [Example 238], the Ki [1] was 1.2 nM and the Ki [2] was 11.5 nM.
For `CCCCCCOc1cccc(C2Oc3cccc(OC)c3-c3ccc4c(c32)C(C)=CC(C)(C)N4)c1` (stereo not drawn) [Example 90, 5-(3-Hexyloxyphenyl)-2,5-dihydro-10-methoxy-2,2,4-trimethyl-1H-[1]benzopyrano[3,4-f]quinoline], the Ki [1] was 7.6 nM and the Ki [2] was ≥ 10000 nM.
For `C=CCC1Oc2cccc(OC)c2-c2ccc3c(c21)C(C)=CC(C)(C)N3` (single isomer, unassigned; (-)) [Example 36, (−)2,5-Dihydro-10-methoxy-2,2,4-trimethyl-5-(2-propenyl)-1H-[1]benzopyrano[3,4-f]quinoline], the Ki [1] was 1.4 nM and the Ki [2] was 1700 nM.
With `COc1c(O)ccc2c1-c1ccc3c(c1/C(=C/c1ccccn1)O2)C(C)=CC(C)(C)N3` [Example 369, Z-9-Hydroxy-10-methoxy-5-(2-picolinylidenyl)-2,2,4-trimethyl-2,5-dihydro-1H-[1]benzopyrano[3,4-f]quinoline] the Ki [1] was 0.41 nM and the Ki [2] was 2530 nM.
`COc1c(OC(=O)CCC(=O)N(C)C)ccc2c1-c1ccc3c(c1C(c1cccs1)O2)C(C)=CC(C)(C)N3` (stereo not drawn) [Example 425, 2,5-Dihydro-9-(4-N,N-dimethylamino-4-oxo-butanoyloxy)-10-methoxy-2,2,4-trimethyl-5-(2-thienyl)-1H-[1]benzopyrano[3,4-f]quinoline] was tested, and the Ki [1] was 0.35 nM and the Ki [2] was 3940 nM.
`CC1=CC(C)(C)Nc2ccc3c(c21)C(c1cc(F)c(F)c(F)c1)Oc1ccc(O)c(Cl)c1-3` (stereo not drawn) [Example 435, 2,5-Dihydro-9-hydroxy-10-chloro-2,2,4-trimethyl-5-(3,4,5-trifluorophenyl)-1H-[1]benzopyrano[3,4-f]quinoline] gave a Ki [1] of 120 nM and a Ki [2] of 734 nM.
`COc1cccc2c1-c1ccc3c(c1[C@H]([C@H]1C=C(C)CCC1)O2)C(C)=CC(C)(C)N3` [Example 157, (−)-(5S,3′R) 2,5-Dihydro-10-methoxy-5-(1-methyl-3-cyclohexenyl)-2,2,4-trimethyl-1H-[1]benzopyrano[3,4-f]quinoline] showed a Ki [1] of 1.5 nM and a Ki [2] of 433 nM.
Compound `CC1=CC(C)(C)Nc2ccc3c(c21)C(c1ccccc1)Oc1ccc(Cl)c(OC(F)F)c1-3` (stereo not drawn) [Example 231, 9-Chloro-10-difluoromethoxy-5-phenyl-2,2,4-trimethyl-2,5-dihydro-1H-[1]benzopyrano[3 4-f]quinoline] has a Ki [1] of 30.2 nM and a Ki [2] of 1870 nM.
